test: physchem; settings: buffer
Description: Aqueous solubility of compound

| solubility kinetic | SMILES |
| --- | --- |
| ≥ 112 µg/mL | O=C(CN1C(=O)COc2ccc(Cl)cc21)NC1(C(=O)O)CCCCC1 |
| ≥ 157 µg/mL | O=C(Cn1c(=O)oc2ccc(-c3ccccc3)cc21)NC1(C(=O)O)CCCCC1 |
| ≥ 172 µg/mL | O=C(CN1C(=O)COc2ccc(C(F)(F)F)cc21)NC1(C(=O)O)CCCCC1 |

Reference: ChEMBL document CHEMBL6074712, “Optimization of Potent and Selective Cyclohexyl Acid ERAP1 Inhibitors Using Structure- and Property-Based Drug Design” (ACS Med Chem Lett, 2024)
